Results: patent publication US10233188B2, “CDK2/4/6 inhibitors” (priority 2016, dated 2019)

Legend:
[1] = biological target: CDK2/Cyclin E1 (Homo sapiens (Human), UniProt P24941); assay: biochemical; conditions: CDK2_Ki (nM), phosphorylated CDK2/Cyclin E1, 150 μM ATP, Morrison tight-binding fit
Method: The assay was initiated with the addition of ATP, following a fifteen minutes pre-incubation of enzyme and inhibitor at room temperature in the reaction mixture. The reaction was stopped after 45 minutes at room temperature by the addition of 50 μL of 80 mM EDTA, pH 7.5.

[2] = biological target: CDK6/Cyclin D1 (Homo sapiens (Human), UniProt Q00534); assay: biochemical; conditions: CDK6_Ki (nM), non-phosphorylated CDK6/Cyclin D1, 2 mM ATP, Morrison fit
Chain of CDK6/Cyclin D1 (Q00534 whole entry): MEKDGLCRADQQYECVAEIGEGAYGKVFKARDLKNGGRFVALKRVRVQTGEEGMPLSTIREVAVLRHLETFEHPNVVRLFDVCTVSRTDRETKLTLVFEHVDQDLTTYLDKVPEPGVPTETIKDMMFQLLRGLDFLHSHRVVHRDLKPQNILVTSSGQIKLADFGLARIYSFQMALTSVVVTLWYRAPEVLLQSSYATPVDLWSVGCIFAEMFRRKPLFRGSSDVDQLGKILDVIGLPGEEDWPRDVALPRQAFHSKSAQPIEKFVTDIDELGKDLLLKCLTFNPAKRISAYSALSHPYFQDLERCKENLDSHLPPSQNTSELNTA
Chain of CDK6/Cyclin D1 (P24385 whole entry partner): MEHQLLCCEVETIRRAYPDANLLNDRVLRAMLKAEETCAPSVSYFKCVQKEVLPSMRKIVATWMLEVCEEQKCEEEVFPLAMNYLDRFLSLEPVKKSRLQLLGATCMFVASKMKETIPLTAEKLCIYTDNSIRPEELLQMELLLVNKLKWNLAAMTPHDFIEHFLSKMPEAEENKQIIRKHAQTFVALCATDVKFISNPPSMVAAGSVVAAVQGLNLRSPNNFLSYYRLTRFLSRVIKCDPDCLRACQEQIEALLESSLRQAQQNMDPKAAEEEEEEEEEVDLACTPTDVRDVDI

SMILES | Ki [1] [nM] | Ki [2] [nM]
CC[C@]1(O)CCC[C@@H]1n1c(=O)c(Cl)cc2cnc(NC3CCN(S(C)(=O)=O)CC3)nc21 (single isomer, unassigned) [Example 196, (+)-6-chloro-8-[(1R*,2R*)-2-ethyl-2-hydroxycyclopentyl]-2-{[1-(methylsulfonyl)piperidin-4-yl]amino}pyrido[2,3-d]pyrimidin-7(8H)-one] | 5.72 | 3.84
CC[C@@]1(O)CCC[C@H]1n1c(=O)ccc2cnc(NC3CCN(S(C)(=O)=O)CC3)nc21 (single isomer, unassigned) [Example 193, (−)-(8-[(1R*,2R*)-2-ethyl-2-hydroxycyclopentyl]-2-{[1-(methylsulfonyl)piperidin-4-yl]amino}pyrido[2,3-d]pyrimidin-7(8H)-one] | 2.55 | 2.27
C[C@@]1(O)CCC[C@H]1n1c(=O)ccc2cnc(NC3CCN(S(=O)(=O)CF)CC3)nc21 (single isomer, unassigned) [Example 58, (−)-2-({1-[(fluoromethyl)sulfonyl]piperidin-4-yl}amino)-8-[(1R*,2R*)-2-hydroxy-2-methylcyclopentyl]pyrido[2,3-d]pyrimidin-7(8H)-one] | 0.27 | 0.49
C[C@H]1[C@@H](O)CC[C@@H]1n1c(=O)ccc2cnc(NC3CCN(S(C)(=O)=O)CC3)nc21 (single isomer, unassigned) [Example 202, (+)-8-[(1R*,2S*,3R*)-3-hydroxy-2-methylcyclopentyl]-2-{[1-(methylsulfonyl)piperidin-4-yl]amino}pyrido[2,3-d]pyrimidin-7(8H)-one] | 0.8 | 2.44
COCCS(=O)(=O)N1CCC(Nc2ncc3cc(C)c(=O)n([C@@H]4CCC[C@@]4(C)O)c3n2)CC1 (single isomer, unassigned) [Example 114, (−)-8-[(1R*,2R*)-2-hydroxy-2-methylcyclopentyl]-2-({1-[(2-methoxyethyl)sulfonyl]piperidin-4-yl}amino)-6-methylpyrido[2,3-d]pyrimidin-7(8H)-one] | 0.17 | 0.15
C[C@@]1(O)CCC[C@H]1n1c(=O)c(C(F)F)cc2cnc(NC3CCN(S(N)(=O)=O)CC3)nc21 (single isomer, unassigned) [Example 187, (−)-4-({6-(difluoromethyl)-8-[(1R*,2R*)-2-hydroxy-2-methylcyclopentyl]-7-oxo-7,8-dihydropyrido[2,3-d]pyrimidin-2-yl}amino)piperidine-1-sulfonamide] | 0.08 | 0.29
CCc1cc2cnc(NC3CCN(S(C)(=O)=O)CC3)nc2n(C2CCCC2)c1=O [Example 141, 8-cyclopentyl-6-ethyl-2-{[1-(methylsulfonyl)piperidin-4-yl]amino}pyrido[2,3-d]pyrimidin-7(8H)-one] | 1.25 | 0.37
CCS(=O)(=O)N1CCC(Nc2ncc3cc(C)c(=O)n([C@@H]4CCC[C@@]4(C)O)c3n2)CC1 (single isomer, unassigned) [Example 110, (−)-2-{[1-(ethylsulfonyl)piperidin-4-yl]amino}-8-[(1R*,2R*)-2-hydroxy-2-methylcyclopentyl]-6-methylpyrido[2,3-d]pyrimidin-7(8H)-one] | 0.1 | 0.28
CS(=O)(=O)N1CCC(Nc2ncc3cc(CC(F)F)c(=O)n([C@H]4CC[C@H](O)C4)c3n2)CC1 (single isomer, unassigned) [Example 171, (+)-6-(2,2-difluoroethyl)-8-[(1R*,3R*)-3-hydroxycyclopentyl]-2-{[1-(methylsulfonyl)piperidin-4-yl]amino}pyrido[2,3-d]pyrimidin-7(8H)-one] | 1.73 | 1.55
CS(=O)(=O)N1CCC(Nc2ncc3cc(CC(F)F)c(=O)n([C@@H]4CCC[C@@H](O)C4)c3n2)CC1 [Example 140, 6-(2,2-difluoroethyl)-8-[(1R,3R)-3-hydroxycyclohexyl]-2-{[1-(methylsulfonyl)piperidin-4-yl]amino}pyrido[2,3-d]pyrimidin-7(8H)-one] | 1.97 | 0.63
C[C@@]1(O)CCC[C@H]1n1c(=O)ccc2cnc(NC3CCN(S(=O)(=O)NC4CCOCC4)CC3)nc21 (single isomer, unassigned) [Example 68, (−)-4-({8-[(1R*,2R*)-2-hydroxy-2-methylcyclopentyl]-7-oxo-7,8-dihydropyrido[2,3-d]pyrimidin-2-yl}amino)-N-(tetrahydro-2H-pyran-4-yl)piperidine-1-sulfonamide] | 0.41 | 3.23
CNS(=O)(=O)N1CCC(Nc2ncc3ccc(=O)n(C4CCCC4)c3n2)CC1 [Example 11, 4-[(8-cyclopentyl-7-oxo-7,8-dihydropyrido[2,3-d]pyrimidin-2-yl)amino]-N-methylpiperidine-1-sulfonamide] | 0.67 | 2.99
COC(C)(C)CNS(=O)(=O)N1CCC(Nc2ncc3cc(C)c(=O)n([C@@H]4CCC[C@@]4(C)O)c3n2)CC1 (single isomer, unassigned) [Example 98, (−)-4-({8-[(1R*,2R*)-2-hydroxy-2-methylcyclopentyl]-6-methyl-7-oxo-7,8-dihydropyrido[2,3-d]pyrimidin-2-yl}amino)-N-(2-methoxy-2-methylpropyl)piperidine-1-sulfonamide] | 0.33 | 0.74
CS(=O)(=O)N1CCC(Nc2ncc3cc(Cl)c(=O)n([C@@H]4CCC[C@@H](O)C4)c3n2)CC1 (single isomer, unassigned) [Example 34, (+)-6-chloro-8-[(1R*,3R*)-3-hydroxycyclohexyl]-2-{[1-(methylsulfonyl)piperidin-4-yl]amino}pyrido[2,3-d]pyrimidin-7(8H)-one] | 1.34 | 0.42
Cc1cc2cnc(NC3CCN(S(C)(=O)=O)CC3)nc2n(C2CCCCC(O)C2)c1=O (single isomer, unassigned; isomer c) [Example 225, 8-(3-hydroxycycloheptyl)-6-methyl-2-{[1-(methylsulfonyl)piperidin-4-yl]amino}pyrido[2,3-d]pyrimidin-7(8H)-one-Isomer C] | 4.63 | 3.13
CNS(=O)(=O)N1CCC(Nc2ncc3cc(F)c(=O)n([C@H]4CCC[C@]4(C)O)c3n2)CC1 (single isomer, unassigned) [Example 125, (+)-4-({6-fluoro-8-[(1R*,2R*)-2-hydroxy-2-methylcyclopentyl]-7-oxo-7,8-dihydropyrido[2,3-d]pyrimidin-2-yl}amino)-N-methylpiperidine-1-sulfonamide] | 6.21 | 36.6

More lines, now with the values ahead:

Ki [1] [nM] | Ki [2] [nM] | SMILES
0.27 | 1.09 | C[C@H]1CCC[C@H]1n1c(=O)c(CC(N)=O)cc2cnc(NC3CCN(S(C)(=O)=O)CC3)nc21 [Example 47, 2-(8-[(1R,2S)-2-methylcyclopentyl]-2-{[1-(methylsulfonyl)piperidin-4-yl]amino}-7-oxo-7,8-dihydropyrido[2,3-d]pyrimidin-6-yl)acetamide]
0.42 | 1.09 | COCCS(=O)(=O)N1CCC(Nc2ncc3ccc(=O)n([C@@H]4CCCC4(C)O)c3n2)CC1 (single isomer, unassigned) [Example 72, (−)-8-[(1R*,2R*)-2-hydroxy-2-methylcyclopentyl]-2-({1-[(2-methoxyethyl)sulfonyl]piperidin-4-yl}amino)pyrido[2,3-d]pyrimidin-7(8H)-one]
4.38 | 8.23 | C[C@]1(O)CCC[C@@H]1n1c(=O)ccc2cnc(NC3CCN(S(=O)(=O)CC(F)(F)F)CC3)nc21 (single isomer, unassigned) [Example 87, (+)-8-[(1R*,2R*)-2-hydroxy-2-methylcyclopentyl]-2-({1-[(2,2,2-trifluoroethyl)sulfonyl]piperidin-4-yl}amino)pyrido[2,3-d]pyrimidin-7(8H)-one]
0.12 | 0.24 | COCCS(=O)(=O)N1CCC(Nc2ncc3ccc(=O)n([C@@H]4CCC[C@@H]4C)c3n2)CC1 [Example 52, 2-({1-[(2-methoxyethyl)sulfonyl]piperidin-4-yl}amino)-8-[(1R,2S)-2-methylcyclopentyl]pyrido[2,3-d]pyrimidin-7(8H)-one]
0.2 | 0.96 | CNS(=O)(=O)N1CCC(Nc2ncc3cc(Cl)c(=O)n([C@@H]4CCC[C@@]4(C)O)c3n2)CC1 (single isomer, unassigned) [Example 126, (−)-4-({6-chloro-8-[(1R*,2R*)-2-hydroxy-2-methylcyclopentyl]-7-oxo-7,8-dihydropyrido[2,3-d]pyrimidin-2-yl}amino)-N-methylpiperidine-1-sulfonamide]
1.79 | 2.33 | CC(C)(O)CS(=O)(=O)N1CCC(Nc2ncc3ccc(=O)n(C4CCCC4)c3n2)CC1 [Example 17, 8-cyclopentyl-2-({1-[(2-hydroxy-2-methylpropyl)sulfonyl]piperidin-4-yl}amino)pyrido[2,3-d]pyrimidin-7(8H)-one]
2.95 | 3.52 | Cc1cc2cnc(NC3CCN(S(C)(=O)=O)CC3)nc2n([C@@H]2CCC[C@H]2O)c1=O [Example 173, 8-[(1R,2R)-2-hydroxycyclopentyl]-6-methyl-2-{[1-(methylsulfonyl)piperidin-4-yl]amino}pyrido[2,3-d]pyrimidin-7(8H)-one]
0.25 | 1.53 | C[C@@]1(O)CCC[C@H]1n1c(=O)ccc2cnc(NC3CCN(S(=O)(=O)c4nncs4)CC3)nc21 (single isomer, unassigned) [Example 80, (−)-8-[(1R*,2R*)-2-hydroxy-2-methylcyclopentyl]-2-{[1-(1,3,4-thiadiazol-2-ylsulfonyl)piperidin-4-yl]amino}pyrido[2,3-d]pyrimidin-7(8H)-one]
26.9 | 31 | Cc1cc2cnc(NC3CCN(S(C)(=O)=O)CC3)nc2n([C@H]2COC[C@]2(C)O)c1=O (single isomer, unassigned) [Example 198, (+)-8-[(3R*,4S*)-4-hydroxy-4-methyltetrahydrofuran-3-yl]-6-methyl-2-{[1-(methylsulfonyl)piperidin-4-yl]amino}pyrido[2,3-d]pyrimidin-7(8H)-one]
